According to the NIST ThermoML archive (doi:10.1021/je050031f):

Assays:
[1] = xn = mol fraction of the nth substance listed; conditions: 100.8 kPa, Liquid
[2] = refractive index (Na D-line) (dimensionless); xn = mol fraction of the nth substance listed; conditions: 100.8 kPa, Liquid, Standard Abbe refractometry

CC1CCCCC1 [methylcyclohexane] + CC(C)OC(C)C
viscosity [mPa·s], [1], Capillary tube (Ostwald / Ubbelohde) method
Conditions | 288.15 K | 298.15 K | 308.15 K
x2 = 0 | 0.784 | 0.685 | 0.6
x2 = 0.0502 | 0.744 | 0.653 | 0.575
x2 = 0.1 | 0.697 | 0.612 | 0.542
x2 = 0.15 | 0.66 | 0.579 | 0.514
x2 = 0.2 | 0.627 | 0.551 | 0.489
x2 = 0.25 | 0.595 | 0.524 | 0.467
x2 = 0.3 | 0.568 | 0.502 | 0.448
x2 = 0.35 | 0.543 | 0.481 | 0.43
x2 = 0.4 | 0.522 | 0.464 | 0.415
x2 = 0.45 | 0.503 | 0.447 | 0.401
x2 = 0.5 | 0.484 | 0.431 | 0.387
x2 = 0.55 | 0.466 | 0.415 | 0.373
x2 = 0.6 | 0.447 | 0.399 | 0.36
x2 = 0.65 | 0.431 | 0.385 | 0.347
x2 = 0.7 | 0.415 | 0.372 | 0.335
x2 = 0.75 | 0.403 | 0.361 | 0.325
x2 = 0.8 | 0.389 | 0.349 | 0.316
x2 = 0.85 | 0.379 | 0.341 | 0.308
x2 = 0.9 | 0.368 | 0.331 | 0.299
x2 = 0.95 | 0.358 | 0.321 | 0.291

Conditions | mass density, 288.15 K [kg/m3] | mass density, 298.15 K [kg/m3] | mass density, 308.15 K [kg/m3] | refractive index, 288.15 K | refractive index, 298.15 K | refractive index, 308.15 K
[1], x2 = 0 | 773.4 | 765 | 756.3 | – | – | –
[1], x2 = 0.0502 | 771.3 | 762.5 | 753.8 | – | – | –
[1], x2 = 0.1 | 768.9 | 760.1 | 751.3 | – | – | –
[1], x2 = 0.15 | 766.6 | 757.7 | 748.8 | – | – | –
[1], x2 = 0.2 | 764.3 | 755.3 | 746.3 | – | – | –
[1], x2 = 0.25 | 761.9 | 752.9 | 743.8 | – | – | –
[1], x2 = 0.3 | 759.6 | 750.5 | 741.3 | – | – | –
[1], x2 = 0.35 | 757.4 | 748.1 | 738.9 | – | – | –
[1], x2 = 0.4 | 755.1 | 745.8 | 736.4 | – | – | –
[1], x2 = 0.45 | 752.8 | 743.4 | 734 | – | – | –
[1], x2 = 0.5 | 750.6 | 741.1 | 731.6 | – | – | –
[1], x2 = 0.55 | 748.4 | 738.8 | 729.2 | – | – | –
[1], x2 = 0.6 | 746.2 | 736.5 | 726.8 | – | – | –
[1], x2 = 0.65 | 743.9 | 734.2 | 724.4 | – | – | –
[1], x2 = 0.7 | 741.7 | 731.9 | 722 | – | – | –
[1], x2 = 0.75 | 739.6 | 729.6 | 719.6 | – | – | –
[1], x2 = 0.8 | 737.4 | 727.3 | 717.3 | – | – | –
[1], x2 = 0.85 | 735.3 | 725.1 | 714.9 | – | – | –
[1], x2 = 0.9 | 733.1 | 722.9 | 712.6 | – | – | –
[1], x2 = 0.95 | 731 | 720.6 | 710.3 | – | – | –
[2], x2 = 0 | – | – | – | 1.42578 | 1.42053 | 1.41537
[2], x2 = 0.0502 | – | – | – | 1.42321 | 1.41757 | 1.4125
[2], x2 = 0.1 | – | – | – | 1.42014 | 1.4146 | 1.40957
[2], x2 = 0.15 | – | – | – | 1.41715 | 1.41158 | 1.40663
[2], x2 = 0.2 | – | – | – | 1.41419 | 1.40859 | 1.40365
[2], x2 = 0.25 | – | – | – | 1.41129 | 1.40565 | 1.40068
[2], x2 = 0.3 | – | – | – | 1.40842 | 1.40277 | 1.39775
[2], x2 = 0.35 | – | – | – | 1.40558 | 1.3999 | 1.39484
[2], x2 = 0.4 | – | – | – | 1.40277 | 1.39707 | 1.39197
[2], x2 = 0.45 | – | – | – | 1.39999 | 1.39428 | 1.38912
[2], x2 = 0.5 | – | – | – | 1.39721 | 1.3915 | 1.38631
[2], x2 = 0.55 | – | – | – | 1.3945 | 1.38878 | 1.38356
[2], x2 = 0.6 | – | – | – | 1.3918 | 1.3861 | 1.38083
[2], x2 = 0.65 | – | – | – | 1.38914 | 1.38347 | 1.37818
[2], x2 = 0.7 | – | – | – | 1.38652 | 1.38082 | 1.37552
[2], x2 = 0.75 | – | – | – | 1.38392 | 1.37823 | 1.37286
[2], x2 = 0.8 | – | – | – | 1.38136 | 1.37565 | 1.37025
[2], x2 = 0.85 | – | – | – | 1.37883 | 1.37309 | 1.36765
[2], x2 = 0.9 | – | – | – | 1.37629 | 1.37053 | 1.36503
[2], x2 = 0.95 | – | – | – | 1.37377 | 1.36799 | 1.36243

CC1CCCCC1 [methylcyclohexane] + CCO
Conditions | mass density, 288.15 K [kg/m3] | mass density, 298.15 K [kg/m3] | mass density, 308.15 K [kg/m3] | refractive index, 288.15 K | refractive index, 298.15 K | refractive index, 308.15 K | viscosity, 288.15 K [mPa·s] | viscosity, 298.15 K [mPa·s] | viscosity, 308.15 K [mPa·s]
[1], x2 = 0 | 773.4 | 765 | 756.3 | – | – | – | 0.784 | 0.685 | 0.6
[1], x2 = 0.05 | 773.4 | 764.6 | 755.8 | – | – | – | 0.771 | 0.674 | 0.589
[1], x2 = 0.1 | 773.4 | 764.7 | 755.7 | – | – | – | 0.769 | 0.67 | 0.588
[1], x2 = 0.15 | 773.7 | 764.8 | 755.8 | – | – | – | 0.77 | 0.667 | 0.585
[1], x2 = 0.2 | 774 | 765.1 | 756.1 | – | – | – | 0.779 | 0.673 | 0.588
[1], x2 = 0.25 | 774.3 | 765.4 | 756.4 | – | – | – | 0.793 | 0.681 | 0.593
[1], x2 = 0.3 | 774.7 | 765.8 | 756.8 | – | – | – | 0.811 | 0.694 | 0.602
[1], x2 = 0.35 | 775.1 | 766.2 | 757.2 | – | – | – | 0.831 | 0.707 | 0.612
[1], x2 = 0.4 | 775.7 | 766.8 | 757.8 | – | – | – | 0.853 | 0.722 | 0.623
[1], x2 = 0.45 | 776.3 | 767.4 | 758.4 | – | – | – | 0.877 | 0.739 | 0.635
[1], x2 = 0.5 | 777 | 768.1 | 759.1 | – | – | – | 0.902 | 0.757 | 0.65
[1], x2 = 0.55 | 777.8 | 768.9 | 759.9 | – | – | – | 0.928 | 0.778 | 0.666
[1], x2 = 0.6 | 778.7 | 769.8 | 760.8 | – | – | – | 0.955 | 0.799 | 0.683
[1], x2 = 0.65 | 779.6 | 770.8 | 761.8 | – | – | – | 0.983 | 0.82 | 0.7
[1], x2 = 0.7 | 780.8 | 772 | 763.1 | – | – | – | 1.012 | 0.843 | 0.72
[1], x2 = 0.75 | 782.1 | 773.4 | 764.5 | – | – | – | 1.043 | 0.867 | 0.74
[1], x2 = 0.8 | 783.6 | 774.9 | 766 | – | – | – | 1.077 | 0.894 | 0.762
[1], x2 = 0.85 | 785.4 | 776.7 | 767.9 | – | – | – | 1.114 | 0.926 | 0.79
[1], x2 = 0.9 | 787.7 | 779 | 770.2 | – | – | – | 1.164 | 0.971 | 0.828
[1], x2 = 0.95 | 790.4 | 781.8 | 773 | – | – | – | 1.225 | 1.021 | 0.867
[2], x2 = 0 | – | – | – | 1.42578 | 1.42053 | 1.41537 | – | – | –
[2], x2 = 0.05 | – | – | – | 1.42405 | 1.41871 | 1.41358 | – | – | –
[2], x2 = 0.1 | – | – | – | 1.42223 | 1.4169 | 1.41176 | – | – | –
[2], x2 = 0.15 | – | – | – | 1.42037 | 1.41505 | 1.40993 | – | – | –
[2], x2 = 0.2 | – | – | – | 1.41843 | 1.41313 | 1.40802 | – | – | –
[2], x2 = 0.25 | – | – | – | 1.41639 | 1.41112 | 1.40603 | – | – | –
[2], x2 = 0.3 | – | – | – | 1.41426 | 1.40902 | 1.40396 | – | – | –
[2], x2 = 0.35 | – | – | – | 1.41199 | 1.40679 | 1.40175 | – | – | –
[2], x2 = 0.4 | – | – | – | 1.4096 | 1.40442 | 1.39942 | – | – | –
[2], x2 = 0.45 | – | – | – | 1.40706 | 1.40192 | 1.39695 | – | – | –
[2], x2 = 0.5 | – | – | – | 1.40437 | 1.39927 | 1.39433 | – | – | –
[2], x2 = 0.55 | – | – | – | 1.4015 | 1.39644 | 1.39153 | – | – | –
[2], x2 = 0.6 | – | – | – | 1.39844 | 1.39343 | 1.38856 | – | – | –
[2], x2 = 0.65 | – | – | – | 1.39516 | 1.3902 | 1.38538 | – | – | –
[2], x2 = 0.7 | – | – | – | 1.39166 | 1.38674 | 1.38197 | – | – | –
[2], x2 = 0.75 | – | – | – | 1.38785 | 1.38298 | 1.37827 | – | – | –
[2], x2 = 0.8 | – | – | – | 1.38377 | 1.37896 | 1.37432 | – | – | –
[2], x2 = 0.85 | – | – | – | 1.37933 | 1.37459 | 1.37001 | – | – | –
[2], x2 = 0.9 | – | – | – | 1.37449 | 1.36985 | 1.36536 | – | – | –
[2], x2 = 0.95 | – | – | – | 1.36921 | 1.36474 | 1.36042 | – | – | –
